{
  "source": "paper PMC6934184",
  "about": "“Selective DNA-PKcs inhibition extends the therapeutic index of localized radiotherapy and chemotherapy” (The Journal of Clinical Investigation, 2019)",
  "test_system": "SJSA-1",
  "experiment": "clonogenic survival with etoposide",
  "format": "cell-based, human",
  "conditions": "NU5455 1 μM, 24 hours",
  "method": "Cell line γH2AX and 53BP1 foci immunofluorescence and quantitation\nCells grown on coverslips or in 96-well plates were treated with 1 or 5 µM NU5455 or DMSO 1 hour prior to irradiation (0, 2.5 or 10 Gy) using an RS 320 X-ray Research System (Gulmay Medical). At set timepoints (15 or 30 minutes, or 1, 4, 5, 6, or 24 hours post-irradiation), cells were washed and fixed in methanol or 3% paraformaldehyde (PFA). […] In A549 and Calu-6, cells were Hoechst stained (5 µg/ml), and the average numbers of γH2AX and 53BP1 foci per cell were quantified from 400 nuclei per sample using an In Cell analyzer 1000 (GE Healthcare). For MCF7 cells, coverslips were mounted using Vectashield mounting medium with DAPI (Vector Labs) and imaged using a Leica TCS SPE confocal fluorescence microscope. Total fluorescence intensity was determined using ImagePro Plus 5.0 software (Media Cybernetics). […]\nCells were washed in phosphate-buffered saline (PBS), trypsinized and counted. […] Colonies were fixed using Carnoys fixture (75% v/v methanol, 25% v/v acetic acid, Fisher), stained with crystal violet (0.4% w/v in water), and counted using a ColCount automated colony counter (Oxford Optronics). Cell survival was calculated as a percentage of the untreated control. […]",
  "data": [
    {"smiles": "CN(C(=O)CN1CCOCC1)c1ccc2sc3c(-c4cccc5c(=O)cc(N6CC7CCC(C6)O7)oc45)cccc3c2c1", "note": "[NU5455]", "values": [
      {"measurement": "Fold potentiation of etoposide (LD80, SER80)", "result": 4.1, "unit": "fold"}
    ]}
  ]
}
